Like-named read-outs stand apart in the source and are kept apart here. Where a SMILES comes first, the peptide text is derived from it.
Assays:
Aphis fabae = conditions: unformulated; for reduction in Aphis fabae numbers as a percentage of untreated control crop: vining peas
From the text: (§1) The data has been processed in the ARM Field Trials software under license.

[1] = tested on: Amrasca biguttula (leaf hopper); conditions: unformulated; 3 and 7 days after application (FIG. 16)
From the text: as §1

Myzus persicae = conditions: unformulated peptide; leaf dip; mortality assessed at 72, 96 and 120 hours; compared to vehicle and Spirotetramat (FIGS. 6 and 7)
Description: Dip a 2.5 cm leaf disc into 3 ml of treatment solution allowing the treatment to coat the leaf. Leave the disc to dry for 1 hour and place onto the set agar. Place insects (aphids) onto each of the leaf discs. Each unit is sealed with a close-fitting, ventilated lid. Place the agar dishes in a small plastic tray lined with moist tissue paper and ensure the water trays in the bottom of the incubator are filled with clean water and place within the incubator. An assessment of mortality is made at 72, 96 and 120 hours. Leaf dip assays were performed with unformulated SB—P-46, and compared to a negative control vehicle and a current commercial insecticide Spirotetramat.

Aphis gossypii = conditions: Greece; cotton; unformulated; counted 3 days following application (FIG. 14)
From the text: as §1
AgriScience conducted a field trial in Greece, investigating the efficacy of insecticidal peptides on aphids on cotton crop.

Bumblebee = experiment: Bee oral toxicity test adapted from OECD Test No. 247 (Bumblebee, Acute Oral Toxicity Test); type: in vivo; conditions: after 96 hours of application, compared to Imidacloprid (FIG. 10)
Description: Bee oral testing protocol was carried out adapted from OECD Test No. 247: Bumblebee, Acute Oral Toxicity Test. The toxicity of SB—P-46 was compared with a negative control of sucrose or vehicle, and with a current commercial insecticide Imidacloprid.

SMILES: CC(C)C[C@H](NC(=O)[C@H](CCCNC(=N)N)NC(=O)[C@@H]1CCCN1C(=O)[C@H](CO)NC(=O)[C@H](Cc1ccccc1)NC(=O)[C@@H]1CCCN1C(=O)[C@@H]1CCCN1C(=O)[C@H](CO)NC(=O)[C@H](Cc1ccc(O)cc1)NC(=O)[C@@H]1CCCN1C(=O)[C@@H]1CCCN1C(=O)[C@@H](N)CO)C(N)=O [SB—P-46, [Hy]-SPPYSPPFSPRL-[NH2]] (H-SPPYSPPFSPRL-NH2)
- reduction in Aphis fabae numbers as a percentage of untreated control crop (Aphis fabae; Field trial 1, Chatteris location, counted 14 days following application (FIG. 11)): performed comparably to the conventional insecticides Stealth and Teppeki
- reduction in Aphis fabae numbers as a percentage of untreated control crop (Aphis fabae; Wigtoft location, counted 4 days following application (FIG. 12)): similarly efficacious activity
- activity against naturally infested Aphis fabae (Aphis fabae; further field trials, 4 and 8 days after application (FIG. 15)): acted comparably to Hallmark Zeon insecticide
- reduction in Aphis fabae numbers as a percentage of untreated control crop (Aphis fabae; third PGRO trial (slot trial), Holbeach location, counted 7 days following application, low aphid infestation (FIG. 13)): performed as efficaciously as the conventional pesticides tested
- activity against naturally infested Amrasca biguttula (leaf hopper) [1]: acted comparably to Flipper insecticide
- activity against Myzus persicae (mortality) (Myzus persicae): good activity
- reduction in Aphis gossypii numbers as a percentage of untreated control crop (Aphis gossypii): close efficacy to the conventional pesticide equivalent tested
- toxicity to bees (% survival) (Bumblebee): far lower toxicity

Reference: patent US12281143B1, “Insect neuropeptides 1” (Solasta Bio Limited, priority 2023, dated 2025)
